Experimental data taken from paper PMC12186339, “Assessment of the structure–activity relationship of analogs of the Naegleria fowleri enolase inhibitor HEX” (RSC Medicinal Chemistry, 2025).
Where two headings read alike, the source gives them in different places.

How the values were obtained:
[1] = test system: N. fowleri strain TY (ATCC 30107) trophozoites; experiment: In vitro growth inhibition of N. fowleri trophozoites (CellTiter-Glo); assay type: cell-based, Naegleria fowleri; details: for EC50: Naegleria fowleri, read-out: N. fowleri EC50
Procedure: N. fowleri strain TY (ATCC 30107) trophozoites were routinely cultured in T-75 TC-treated flasks at 37 °C and 5% CO2 in media that has been previously described.[10] All compounds described were reconstituted in DMSO for testing, with final concentrations kept at <1% in the assays. To test the inhibitory activity of the compounds on cell growth, 1 × 10^4 cells per mL were seeded in white 96-well plates with 100 μM compound. Cells and compound were incubated at 37 °C and 5% CO2 for 48 hours. CellTiter-Glo reagent (Promega G7570) was then added to each well and luminescence was read using a BioTek Synergy H1 Microplate Reader. […] All reactions were performed in technical triplicate. If growth inhibition was <50% at the concentration tested, EC50 was reported to be above that value.

[2] = Human cell growth inhibition (CellTiter Blue); assay type: cell-based; details: HEK-293, 48 hours, read-out: Human cell line CC50
Procedure: To determine the amount of agent required to inhibit human cell growth 50% (the CC50 value), human embryonic kidney cells (ATCC HEK-293) were seeded at 5 × 10^4 cells per well in 100 μL of Dulbecco's modified Eagle's medium in tissue culture-treated clear bottom black 96 well plates (Gibco). Cells were incubated with compounds for 48 hours, followed by addition of CellTiter Blue (Promega, Madison, WI, USA) After a 3 hour incubation and equilibration for 15 minutes at room temperature, fluorescence (Ex: 560 nm, EM: 590 nm) was measured and the percentage of growth inhibition was calculated using untreated controls.

NfENO = NfENO (Naegleria fowleri, UniProt A0A6A5BXC3); experiment: NfENO pyruvate kinase/lactate dehydrogenase-coupled activity assay; assay type: biochemical; details: at 100 μM
Chain of NfENO (A0A6A5BXC3 entry or part of it): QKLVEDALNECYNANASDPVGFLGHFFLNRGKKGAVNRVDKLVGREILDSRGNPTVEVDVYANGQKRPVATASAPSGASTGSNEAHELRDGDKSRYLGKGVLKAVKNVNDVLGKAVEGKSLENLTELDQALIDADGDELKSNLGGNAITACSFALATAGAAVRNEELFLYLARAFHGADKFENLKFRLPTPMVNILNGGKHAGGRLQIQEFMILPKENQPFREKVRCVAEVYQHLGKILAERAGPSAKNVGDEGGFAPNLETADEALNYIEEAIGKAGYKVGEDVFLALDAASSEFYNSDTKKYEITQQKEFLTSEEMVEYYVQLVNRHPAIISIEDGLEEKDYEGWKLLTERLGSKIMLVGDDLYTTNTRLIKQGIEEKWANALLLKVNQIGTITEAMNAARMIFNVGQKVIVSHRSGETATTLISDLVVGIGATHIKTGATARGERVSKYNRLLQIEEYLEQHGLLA
Procedure: Using the full-length protein (NF0118810, AmoebaDB, https://amoebadb.org/amoeba/app/), an E. coli codon-optimized construct was designed to express a truncated version of NfENO (residues 44–512) to improve solubility.[10]NfENO was heterologously expressed in BL2(DE3)R3 Rosetta cells and expression induced with 0.5 mM isopropyl-β-D-1-thiogalactopyranoside (IPTG) overnight at 37 °C. Cells were lysed using a lysozyme and 10% Triton X-100 based lysis buffer and purified with Ni-NTA agarose beads (Qiagen). Activity assays were conducted in triplicate using a pyruvate kinase/lactate dehydrogenase-coupled assay. Approximately 75 nM of NfENO in assay buffer (100 mM HEPES, pH 8.5, 3.3 mM MgSO4, 120 mM KCl, 1.75 mM ADP, 1 U pyruvate kinase/lactate dehydrogenase, and 0.4 mM NADH) was added to black 96-well plates. For assays in the presence of inhibitor, compounds were resuspended in DMSO, added to the wells, and incubated with enzyme in assay buffer for 15 minutes at room temperature. DMSO was included as a vehicle control. Assays were initiated by addition of substrate solution (3.75 mM 2-PG) and fluorescence emission at 460 nm after excitation at 360 nm was monitored every 20 seconds for 4 minutes using a Biotek Synergy H1 microplate reader. The rate of fluorescence reduction was measured to monitor the conversion of NADH to NAD+. […]

[3] = ATCC30107, trophozoites, 48 hours

EC50 [1, 3] [µM]	SMILES	EC50 ([1]; ATCC30107, 48 h) [µM]	also measured
–	NN1CCCC(P(=O)(O)O)C1=O (stereo not shown) [Compound 1, (1-Amino-2-oxopiperidin-3-yl)phosphonic acid]	> 25	–
> 25	O=C1C(P(=O)(O)O)c2ccccc2CN1O (stereo not shown) [Compound 2, (2-Hydroxy-3-oxo-1,2,3,4-tetrahydroisoquinolin-4-yl)phosphonic acid]	–	activity on N. fowleri growth ([1]; at higher concentrations than 25 μM (100 μM screen), 48 hours): modest activity; CC50 at 48 h ([2]; HEK-293 cells): > 25 µM
–	O=C1C(P(=O)(O)O)CCCN1CCO (stereo not shown) [Compound 3, (1-(2-Hydroxyethyl)-2-oxopiperidin-3-yl)phosphonic acid]	> 25	–
> 25	O=C1C(S(=O)(=O)O)CCCN1O (stereo not shown) [Compound 4, 1-Hydroxy-2-oxopiperidine-3-sulfonic acid]	–	–
> 25	O=C1[C@@H](P(=O)(O)O)[C@@H]2CCCC[C@H]2CN1O [Compound 5, ((4S,4aR,8aR)-2-Hydroxy-3-oxodecahydroisoquinolin-4-yl)phosphonic acid]	–	–
–	O=C1NCCCC1P(=O)(O)O (stereo not shown) [Compound 6, (2-Oxopiperidin-3-yl)phosphonic acid]	> 25	effect on NfENO (NfENO): no effect
–	O=C1SCCCC1P(=O)(O)O (stereo not shown) [Compound 7, (2-Oxotetrahydro-2H-thiopyran-3-yl)phosphonic acid]	> 25	effect on NfENO (NfENO): no effect
–	O=C1C(P(=O)(O)O)CCCN1O (stereo not shown) [HEX, (1-hydroxy-2-oxopiperidin-3-yl)phosphonic acid, reference compound]	0.21 ± 0.02	CC50 at 48 h [2]: > 100 µM
